Measurements as given in patent US20240327364A1, “THERAPEUTIC TARGETING OF GPR68 TO INDUCE FERROPTOSIS” (University Of Maryland, Baltimore, priority 2023, published 2024).

Columns and labels:
[1] = biological target: T1, 336X-GFP (GPR68 truncation variant) (Homo sapiens, UniProt Q15743); experiment: SRE-luciferase assay, 336X-GFP transfected HEK293T cells; assay type: cell-based; details: OGM 10 μM
T1 construct: while the full-length (GPR68-GFP) internalizes in response to stimulation; expressed in transfected cells; host or cells: HEK293T
Protocol: 12-well plates of cells were transfected with 1 μg DNA using Lipofectamine 3000 with sre:luciferase and either the vector backbone, GFP, GPR68, GPR68-GFP, GPR4, or 336X-GFP. After 3 days, these cells were then lysed, and cell extracts were subjected to Steady-Glo luciferase assay (Promega™) according to the manufacturer's instructions. The results were normalized to cell titer, as determined using Cell Titer-Glo luminescence assay (Promega™). For some procedure, the cells were treated in serum-free medium, and were lysed on the third day.
Loss of internalization can indicate loss of activity or loss of the ability to internalize through beta-arrestin. […] Compared to GFP controls, GPR68-GFP and 336X-GFP transfected cells had higher levels of activity. (n=3 biological replicates done in triplicate). Furthermore, the activity of the truncation variant was still inhibited by OGM. […]

U87 spheroids = experiment: GBM spheroid assay; assay type: cell-based, human
Protocol: One thousand cells per well were plated in an ultra-low attachment, round-bottomed, 96-well plate, and spheroids were allowed to form for 3 days. Wells were then exposed to concentrations of vehicle, OGM2 or TMZ or a combination for 3 days. Spheroids were imaged in brightfield at 10× using z-stacks that were collapsed into z-projections in the Gen5 software using the LionheartFx (BioTek™). Automated measurements of the spheroid area were obtained using Gen5 software.
Tumor spheroid cultures are a more physiological model of tumor growth than typical 2D cell culture. Temozolomide sensitive U87 (FIG. 20A) and Temozolomide insensitive U138 (FIG. 20B) glioblastoma cell lines were plated in low attachment round bottom 96-well plates and allowed to form tumor spheroids for 3 days (T0). At T0, spheroids were imaged using Lionheart™ (HCS) High-Content Imaging Systems (Biotek™) and then were exposed to increasing doses of either Temozolomide or OGM2. After 5 days of treatment the spheroids were imaged again (T5). The size (area) of the spheroids after 5 days of treatment was quantified, and the average size of the spheroids at TO is depicted in red.
A GPR68-positive allosteric modulator, Ogerin, was tested. U87glioblastoma cells were plated in low attachment round bottom 96-well plates and allowed to form tumor spheroids for 3 days (TO). These spheroids were treated with Vehicle (DMSO), 10 μM/20 μM Ogerin or 10 μM/20 μM Ogremorphin-2 (OGM2). The spheroids were placed in the Lionheart™ HCS equipped with environmental control (5% CO2 at 37° C.) and imaged every 12 hours.
Spheroids were formed over 3 days using low attachment 96-well round bottom plates and then treated with DMSO or OGM2 in either pH 8 buffered media or pH 6.2 buffered media and grown for 3 days. The size (area) of spheroids was measured in relative area units. […] This increase in growth was abrogated by OGM2.

MKNK1 = biological target: T2, MKNK1 (Homo sapiens, UniProt Q9BUB5); experiment: KinomeScan; assay type: binding; details: read-out: % Control
T2 construct: purchased DiscoveRx

CCR4 = biological target: T3, CCR4 (Homo sapiens, UniProt P51679); experiment: GPCR Profiler; assay type: cell-based
T3 construct: host or cells: Chem-1 cells with Gα15

MAP3K2 = biological target: T4, MAP3K2 (Homo sapiens, UniProt Q9Y2U5); experiment: KinomeScan; assay type: binding; details: read-out: % Control
T4 construct: purchased DiscoveRx (Fremont, CA)

[2] = biological target: T5, RPS6KA4(Kin.Dom.1-N-terminal) (Homo sapiens, UniProt O75676); experiment: KinomeScan; assay type: binding; details: read-out: % Control
T5 construct: RPS6KA4(Kin.Dom.1-N-terminal); purchased DiscoveRx (Fremont, CA)

ADRA2A = biological target: T6, ADRA2A (Homo sapiens, UniProt P08913); experiment: GPCR Profiler; assay type: cell-based
T6 construct: host or cells: Chem-1 cells with promiscuous Gα15

ITK = biological target: T7, ITK (Homo sapiens, UniProt Q08881); experiment: KinomeScan; assay type: binding; details: read-out: % Control
T7 construct: purchased DiscoveRx (Fremont, CA)

PTH1 = biological target: T8, PTH1 (Homo sapiens, UniProt Q03431); experiment: GPCR Profiler; assay type: cell-based
T8 construct: host or cells: Chem-1 cells with Gα15

EPHA3 = biological target: T9, EPHA3 (Homo sapiens, UniProt P29320); experiment: KinomeScan; assay type: binding; details: read-out: % Control
T9 construct: purchased DiscoveRx (Fremont, CA)

PRP = biological target: T10, PRP (Homo sapiens, UniProt P49683); experiment: GPCR Profiler; assay type: cell-based
T10 construct: host or cells: Chem-1 cells with Gα15
Protocol: (§1) GPCR profiling assays were performed by Millipore (St. Louis, MO) using in cells expressing Gα15, a promiscuous G protein that enhances GPCR coupling to downstream Ca2+ signaling pathways. KinomeScan was conducted by DiscoveRx (Fremont, CA).
(§2) To identify the target of OGM1, the molecule was profiled for binding in a panel of 442 kinases (KinomeScan™, DiscoveRx™) and assessed its activity against 158 GPCRs in a single-point assay in Chem-1 cells that uses a promiscuous Gα15 protein to trigger calcium flux (see Table 9 and Table 10, below). […] Table 9. KinomeScan (DiscoverRx) profiling of OGM1.

5-HT2A = biological target: T11, 5-HT2A (Homo sapiens, UniProt P28223); experiment: GPCR Profiler; assay type: cell-based
T11 construct: host or cells: Chem-1 cells with promiscuous Gα15
Protocol: as §1, §2

BDKR2 = biological target: T12, BDKR2 (Homo sapiens, UniProt P30411); experiment: GPCR Profiler; assay type: cell-based
T12 construct: host or cells: Chem-1 cells with promiscuous Gα15

CDK8 = biological target: T13, CDK8 (Homo sapiens, UniProt P49336); experiment: KinomeScan; assay type: binding; details: read-out: % Control
T13 construct: purchased DiscoveRx (KinomeScan service)

NOP = biological target: T14, NOP (Homo sapiens, UniProt P41146); experiment: GPCR Profiler; assay type: cell-based
T14 construct: host or cells: Chem-1 cells expressing Gα15

ACVR1B = biological target: T15, ACVR1B (Homo sapiens, UniProt P36896); experiment: KinomeScan; assay type: binding; details: read-out: % Control
T15 construct: purchased DiscoveRx

M3 = biological target: T16, M3 (Homo sapiens, UniProt P20309); experiment: GPCR Profiler; assay type: cell-based
T16 construct: host or cells: Chem-1 cells with promiscuous Gα15

PKAC-beta = biological target: T17, PKAC-beta (Homo sapiens, UniProt P22694); experiment: KinomeScan; assay type: binding; details: read-out: % Control
T17 construct: purchased DiscoveRx (Fremont, CA)

T6 sequence (P08913 whole entry, species assumed): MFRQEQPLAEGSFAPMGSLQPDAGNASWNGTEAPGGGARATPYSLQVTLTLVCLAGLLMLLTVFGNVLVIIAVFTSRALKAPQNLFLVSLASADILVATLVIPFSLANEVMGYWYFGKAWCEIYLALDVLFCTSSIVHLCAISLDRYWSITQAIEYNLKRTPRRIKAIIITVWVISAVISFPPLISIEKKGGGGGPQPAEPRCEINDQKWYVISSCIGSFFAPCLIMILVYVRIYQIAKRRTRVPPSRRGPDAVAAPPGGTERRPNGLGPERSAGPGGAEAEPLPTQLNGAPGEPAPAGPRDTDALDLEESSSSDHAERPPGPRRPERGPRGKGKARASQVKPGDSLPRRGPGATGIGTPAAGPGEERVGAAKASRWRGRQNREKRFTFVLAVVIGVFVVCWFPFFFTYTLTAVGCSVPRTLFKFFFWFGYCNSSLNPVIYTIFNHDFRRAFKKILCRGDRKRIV
T11 sequence (P28223 whole entry): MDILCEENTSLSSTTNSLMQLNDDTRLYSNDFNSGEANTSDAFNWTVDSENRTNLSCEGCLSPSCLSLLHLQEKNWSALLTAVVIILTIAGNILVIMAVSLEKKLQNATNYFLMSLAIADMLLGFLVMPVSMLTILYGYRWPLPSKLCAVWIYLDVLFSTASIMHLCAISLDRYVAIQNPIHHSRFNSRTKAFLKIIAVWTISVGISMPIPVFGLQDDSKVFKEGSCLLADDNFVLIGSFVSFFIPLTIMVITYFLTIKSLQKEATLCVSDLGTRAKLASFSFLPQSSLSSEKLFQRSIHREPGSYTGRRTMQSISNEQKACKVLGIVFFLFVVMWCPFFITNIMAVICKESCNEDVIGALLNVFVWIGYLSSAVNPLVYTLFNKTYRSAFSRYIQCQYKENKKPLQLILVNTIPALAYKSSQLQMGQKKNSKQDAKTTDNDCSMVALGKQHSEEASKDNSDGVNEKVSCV
T14 sequence (P41146 whole entry): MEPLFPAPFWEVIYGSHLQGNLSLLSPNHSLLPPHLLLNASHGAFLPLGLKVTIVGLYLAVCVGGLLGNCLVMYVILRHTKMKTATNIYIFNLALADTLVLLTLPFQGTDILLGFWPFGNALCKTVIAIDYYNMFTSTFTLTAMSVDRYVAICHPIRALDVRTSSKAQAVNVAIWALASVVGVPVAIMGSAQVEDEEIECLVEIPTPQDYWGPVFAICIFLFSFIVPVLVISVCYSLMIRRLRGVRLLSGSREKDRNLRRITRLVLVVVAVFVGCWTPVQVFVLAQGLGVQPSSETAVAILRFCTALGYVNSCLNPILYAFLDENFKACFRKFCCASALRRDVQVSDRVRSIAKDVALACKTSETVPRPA
T16 sequence (P20309 whole entry): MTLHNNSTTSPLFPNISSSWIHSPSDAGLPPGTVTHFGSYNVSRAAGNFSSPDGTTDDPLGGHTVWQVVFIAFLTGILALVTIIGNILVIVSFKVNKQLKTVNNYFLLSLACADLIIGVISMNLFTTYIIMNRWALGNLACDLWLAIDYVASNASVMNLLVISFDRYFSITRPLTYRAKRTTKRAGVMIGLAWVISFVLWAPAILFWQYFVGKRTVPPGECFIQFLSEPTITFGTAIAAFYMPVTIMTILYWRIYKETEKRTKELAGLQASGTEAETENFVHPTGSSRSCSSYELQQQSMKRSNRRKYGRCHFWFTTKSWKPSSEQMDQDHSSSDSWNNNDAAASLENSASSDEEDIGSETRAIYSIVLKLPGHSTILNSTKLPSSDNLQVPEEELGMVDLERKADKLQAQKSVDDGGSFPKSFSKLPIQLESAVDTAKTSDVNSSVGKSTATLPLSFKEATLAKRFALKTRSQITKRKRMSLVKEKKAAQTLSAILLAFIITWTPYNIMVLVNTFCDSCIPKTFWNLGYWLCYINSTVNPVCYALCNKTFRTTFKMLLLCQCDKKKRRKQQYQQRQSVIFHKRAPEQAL
T3 sequence (P51679 whole entry): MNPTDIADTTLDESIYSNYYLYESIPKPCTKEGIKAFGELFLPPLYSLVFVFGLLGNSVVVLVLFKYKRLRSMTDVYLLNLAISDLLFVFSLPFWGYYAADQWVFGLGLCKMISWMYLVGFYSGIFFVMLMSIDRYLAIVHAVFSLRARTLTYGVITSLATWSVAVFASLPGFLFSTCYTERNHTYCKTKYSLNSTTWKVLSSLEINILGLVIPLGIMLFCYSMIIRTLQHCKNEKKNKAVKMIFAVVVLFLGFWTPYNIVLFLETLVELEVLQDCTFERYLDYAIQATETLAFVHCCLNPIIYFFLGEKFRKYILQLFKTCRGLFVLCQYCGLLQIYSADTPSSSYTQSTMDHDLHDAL
T12 sequence (P30411 whole entry): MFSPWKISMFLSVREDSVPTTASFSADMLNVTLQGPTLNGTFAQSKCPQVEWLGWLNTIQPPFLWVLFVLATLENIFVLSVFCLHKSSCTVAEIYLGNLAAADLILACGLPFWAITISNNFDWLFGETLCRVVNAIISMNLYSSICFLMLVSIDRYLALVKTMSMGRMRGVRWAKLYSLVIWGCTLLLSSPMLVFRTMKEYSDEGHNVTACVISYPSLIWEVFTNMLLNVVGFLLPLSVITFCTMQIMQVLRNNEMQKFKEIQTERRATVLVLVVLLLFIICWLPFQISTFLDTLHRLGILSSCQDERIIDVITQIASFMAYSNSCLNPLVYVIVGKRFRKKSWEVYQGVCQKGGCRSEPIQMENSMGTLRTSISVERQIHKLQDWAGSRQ
T10 sequence (P49683 whole entry): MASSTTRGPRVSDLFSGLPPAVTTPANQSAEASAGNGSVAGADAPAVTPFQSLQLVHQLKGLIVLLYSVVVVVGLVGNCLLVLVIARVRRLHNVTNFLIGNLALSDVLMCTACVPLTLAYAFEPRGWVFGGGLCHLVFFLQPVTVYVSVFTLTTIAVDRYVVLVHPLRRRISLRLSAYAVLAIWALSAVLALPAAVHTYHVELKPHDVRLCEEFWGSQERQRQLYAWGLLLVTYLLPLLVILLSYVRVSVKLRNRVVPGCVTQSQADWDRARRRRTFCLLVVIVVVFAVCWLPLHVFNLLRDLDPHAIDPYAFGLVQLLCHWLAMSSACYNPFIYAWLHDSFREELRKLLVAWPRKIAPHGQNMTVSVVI
T8 sequence (Q03431 27-593): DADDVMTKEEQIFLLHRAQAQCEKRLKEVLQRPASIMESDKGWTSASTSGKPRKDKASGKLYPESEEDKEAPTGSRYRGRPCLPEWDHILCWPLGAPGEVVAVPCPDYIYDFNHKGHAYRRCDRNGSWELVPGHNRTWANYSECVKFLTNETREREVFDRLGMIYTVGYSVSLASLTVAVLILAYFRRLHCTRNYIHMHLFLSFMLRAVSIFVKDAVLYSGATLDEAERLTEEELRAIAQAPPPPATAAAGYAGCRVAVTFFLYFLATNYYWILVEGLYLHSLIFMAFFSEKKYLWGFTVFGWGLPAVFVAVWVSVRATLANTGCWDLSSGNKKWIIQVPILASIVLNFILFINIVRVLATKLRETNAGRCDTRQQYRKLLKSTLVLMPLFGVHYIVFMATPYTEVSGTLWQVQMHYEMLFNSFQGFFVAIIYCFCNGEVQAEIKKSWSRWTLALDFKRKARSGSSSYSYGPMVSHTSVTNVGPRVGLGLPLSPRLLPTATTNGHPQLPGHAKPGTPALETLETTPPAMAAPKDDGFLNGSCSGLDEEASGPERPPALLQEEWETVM
T4 sequence (Q9Y2U5 whole entry): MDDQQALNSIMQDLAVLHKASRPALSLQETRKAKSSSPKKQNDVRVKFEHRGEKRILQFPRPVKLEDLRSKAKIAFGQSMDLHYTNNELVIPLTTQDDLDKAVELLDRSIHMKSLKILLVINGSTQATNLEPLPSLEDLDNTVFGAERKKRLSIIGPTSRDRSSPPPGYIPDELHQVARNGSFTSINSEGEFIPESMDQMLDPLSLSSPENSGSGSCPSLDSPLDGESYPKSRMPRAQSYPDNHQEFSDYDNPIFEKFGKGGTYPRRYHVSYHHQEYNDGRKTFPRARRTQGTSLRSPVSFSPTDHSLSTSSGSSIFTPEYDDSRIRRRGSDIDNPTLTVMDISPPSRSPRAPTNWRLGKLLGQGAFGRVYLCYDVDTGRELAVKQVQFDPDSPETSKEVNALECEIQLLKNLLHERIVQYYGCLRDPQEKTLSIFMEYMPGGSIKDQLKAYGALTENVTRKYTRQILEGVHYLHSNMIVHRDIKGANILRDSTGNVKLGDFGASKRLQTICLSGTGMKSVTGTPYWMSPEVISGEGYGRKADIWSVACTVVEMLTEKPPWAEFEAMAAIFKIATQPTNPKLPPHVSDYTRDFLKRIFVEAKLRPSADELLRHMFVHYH
T2 sequence (Q9BUB5 whole entry): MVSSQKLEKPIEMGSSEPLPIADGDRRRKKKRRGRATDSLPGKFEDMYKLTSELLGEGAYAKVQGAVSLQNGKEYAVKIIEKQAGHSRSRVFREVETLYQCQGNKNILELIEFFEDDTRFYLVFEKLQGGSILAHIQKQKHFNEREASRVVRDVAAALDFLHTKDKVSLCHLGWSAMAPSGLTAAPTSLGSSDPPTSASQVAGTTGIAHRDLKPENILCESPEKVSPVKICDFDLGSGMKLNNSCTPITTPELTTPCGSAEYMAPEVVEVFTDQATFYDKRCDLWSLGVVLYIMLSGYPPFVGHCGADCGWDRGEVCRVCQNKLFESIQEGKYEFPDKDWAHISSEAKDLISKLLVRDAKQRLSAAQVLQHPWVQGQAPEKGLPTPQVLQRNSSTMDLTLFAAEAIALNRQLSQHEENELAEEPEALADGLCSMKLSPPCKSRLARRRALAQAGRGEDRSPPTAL
T5 sequence (O75676 33-301 limits assumed): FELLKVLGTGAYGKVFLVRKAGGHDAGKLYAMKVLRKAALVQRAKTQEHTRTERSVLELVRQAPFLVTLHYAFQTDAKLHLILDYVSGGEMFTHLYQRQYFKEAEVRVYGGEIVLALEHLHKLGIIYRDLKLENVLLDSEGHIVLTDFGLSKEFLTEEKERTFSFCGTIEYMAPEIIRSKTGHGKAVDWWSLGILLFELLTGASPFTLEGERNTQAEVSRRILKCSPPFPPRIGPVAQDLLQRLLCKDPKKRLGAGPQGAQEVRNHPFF

CCc1ccc2c(c1)C1(NN=C(c3ccccc3)S1)C(=O)N2 (stereo not shown) [OGM2]
SRE-luciferase activity [1]: reduced the level of luciferase activity
spheroid growth rate (U87 spheroids): impaired spheroid growth rate
spheroid growth, comparison with TMZ (U87 spheroids): more potent inhibitor of U87 spheroid growth than TMZ
increase in spheroid growth at pH 6.2 versus pH 8 (U87 spheroids; 3 days): abrogated

CCc1ccc2c(c1)C1(NN=C(c3cccc4ccccc34)S1)C(=O)N2 (stereo not shown) [OGM1, 5-ethyl-5′-naphthalen-1-ylspiro[1H-indole-3,2′-3H-1,3,4-thiadiazole]-2-one]
remaining binding at 10 µM (MKNK1): 90%
Antagonism (CCR4; 10 uM): −4.1
Agonism (CCR4; 12.5 uM): −0.7
remaining binding at 10 µM (MAP3K2): 92%
remaining binding at 10 µM [2]: 92%
Antagonism (ADRA2A; 10 uM): −5.1
Agonism (ADRA2A; 12.5 uM): 0.1
remaining binding at 10 µM (ITK): 100%
Antagonism (PTH1; 10 uM): 2.2
Agonism (PTH1; 12.5 uM): 0.7
remaining binding at 10 µM (EPHA3): 78%
Antagonism (PRP; 10 uM): −11.1
Agonism (PRP; 12.5 uM): −0.3
Antagonism (5-HT2A; 10 uM): −12.3
Agonism (5-HT2A; 12.5 uM): 1.2
Antagonism (BDKR2; 10 uM): 3.4
Agonism (BDKR2; 12.5 uM): −2.4
remaining binding at 10 µM (CDK8): 100%
Antagonism (NOP; 10 uM): −1.9
Agonism (NOP; 12.5 uM): 0.2
remaining binding at 10 µM (ACVR1B): 100%
Antagonism (M3; 10 uM): −1.9
Agonism (M3; 12.5 uM): 0.7
remaining binding at 10 µM (PKAC-beta): 96%
